Measured values published in patent US11279735B2, “Cyclic peptide antibiotics” (priority 2017, dated 2022).
In brackets after ≈: the same amount, converted by molar mass. Where two headings read alike, the source gives them in different places. *1 amine or outer side, *2 acyl side, *3 side chain or, on linkers, in order; H or OH if unused. Where a SMILES comes first, the peptide text is derived from it. [ ]: non-standard residue; d: D form. X23 = CCCCCCCCCC[C@@H](OCCN[*:1])[C@@H](C)C(=O)[*:2]; aIle = CC[C@@H](C)[C@H](N)C(=O)O; NMeL = CN[C@@H](CC(C)C)C(=O)O; Dap = NC[C@H](N)C(=O)O

Tested on: Escherichia coli (E. coli) strain CFT073 ATCC 700928
Type: cell-based
Method in brief: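 Broth microdilution MIC per CLSI M07-A8 in cation-adjusted Mueller Hinton II broth with 0.002% Tween-80. Ten-point 2-fold series topped at 64, 4, 0.5 or 0.13 μg/mL depending on protocol. Final inoculum OD600 0.0005, incubated 22 h at 35 °C.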

Row | SMILES | MIC (ATCC 700928, 22 h) [µM] | MIC (E. coli CFT073 ATCC 700928, Mueller Hinton II cation adjusted Broth with 0.002% v/v Tween-80, 35° C. for 22 hours, lowest concentration that completely prevented bacterial growth) [µM]
1 | CCCCCC[C@H]1OC(=O)CNC(=O)[C@H]([C@H](C)O)NC(=O)[C@H](CN)NC(=O)[C@H](C2CCCCC2)NC(=O)[C@H](CC(C)C)N(C)C(=O)[C@@H]1Cc1ccc(C)cc1 [Example 96, (6S,9S,12S,15S,18R,19R)-9-(aminomethyl)-12-cyclohexyl-19-hexyl-15-isobutyl-16-methyl-18-(p-tolylmethyl)-6-[(1S)-1-hydroxyethyl]-1-oxa-4,7,10,13,16-pentazacyclononadecane-2,5,8,11,14,17-hexone] | 5.3 (≈ 4.09 µg/mL) | 
2 | CCCCCC[C@H]1OC(=O)CNC(=O)[C@H]([C@H](C)O)NC(=O)[C@H](CN)NC(=O)[C@H](C2CCCCC2)NC(=O)[C@H](CC(C)C)N(C)C(=O)[C@@H]1CCc1ccc(C)cc1 [Example 97, (6S,9S,12S,15S,18R,19R)-9-(aminomethyl)-12-cyclohexyl-19-hexyl-15-isobutyl-16-methyl-18-[2-(p-tolyl)ethyl]-6-[(1S)-1-hydroxyethyl]-1-oxa-4,7,10,13,16-pentazacyclononadecane-2,5,8,11,14,17-hexone] | 3.7 (≈ 2.9 µg/mL) | 
3 | CCCCCC[C@H]1OC(=O)CNC(=O)[C@H]([C@H](C)O)NC(=O)[C@H](CN)NC(=O)[C@H](c2ccccc2)NC(=O)[C@H](CC(C)C)N(C)C(=O)[C@@H]1C [Example 98, (6S,9S,12S,15S,18R,19R)-9-(aminomethyl)-19-hexyl-15-isobutyl-16,18-dimethyl-12-phenyl-6-[(1S)-1-hydroxyethyl]-1-oxa-4,7,10,13,16-pentazacyclononadecane-2,5,8,11,14,17-hexone] | 71 (≈ 47.9 µg/mL) | 
4 | CCCCCCCCCC[C@H]1OCCNC(=O)[C@H](CO)NC(=O)[C@H](CN)NC(=O)[C@H]([C@H](C)CC)NC(=O)[C@H](CC(C)C)N(C)C(=O)[C@@H]1C [Example 99, (6S,9S,12S,15S,18R,19R)-9-(aminomethyl)-19-decyl-6-(hydroxymethyl)-15-isobutyl-16,18-dimethyl-12-[(1R)-1-methylpropyl]-1-oxa-4,7,10,13,16-pentazacyclononadecane-5,8,11,14,17-pentone] (cyclo([Dap]S[X23][NMeL][aIle])) | 17 (≈ 11.6 µg/mL) | 
5 | CCCCCC[C@H]1OC(=O)CNC(=O)[C@H]([C@H](C)O)NC(=O)[C@H]([C@H](C)O)NC(=O)[C@H]([C@H](C)CC)NC(=O)[C@H](CC(C)C)N(C)C(=O)[C@@H]1C [Example 100, (6S,9S,12S,15S,18R,19R)-19-hexyl-15-isobutyl-16,18-dimethyl-6,9-bis[(1S)-1-hydroxyethyl]-12-[(1R)-1-methylpropyl]-1-oxa-4,7,10,13,16-pentazacyclononadecane-2,5,8,11,14,17-hexone] | 35 (≈ 23.4 µg/mL) | 
6 | CCCCCC[C@H]1OC(=O)CNC(=O)[C@H]([C@H](C)O)NC(=O)[C@H](CN)NC(=O)[C@H](C2CCCCC2)NC(=O)[C@H](CCC)N(C)C(=O)[C@@H]1C [Example 101, (6S,9S,12S,15S,18R,19R)-9-(aminomethyl)-12-cyclohexyl-19-hexyl-16,18-dimethyl-15-propyl-6-[(1S)-1-hydroxyethyl]-1-oxa-4,7,10,13,16-pentazacyclononadecane-2,5,8,11,14,17-hexone] | 4.1 (≈ 2.73 µg/mL) | 
7 | C=CCCCC[C@H]1OC(=O)CNC(=O)[C@H]([C@H](C)O)NC(=O)[C@H](CN)NC(=O)[C@H](C2CCCCC2)NC(=O)[C@H](CC(C)C)N(C)C(=O)[C@@H]1C [Example 105, (6S,9S,12S,15S,18R,19R)-9-(aminomethyl)-12-cyclohexyl-19-hex-5-enyl-15-isobutyl-16,18-dimethyl-6-[(1S)-1-hydroxyethyl]-1-oxa-4,7,10,13,16-pentazacyclononadecane-2,5,8,11,14,17-hexone] |  | 5.2 (≈ 3.53 µg/mL)

Further lines, with some results ahead:

Row | MIC (ATCC 700928, 22 h) [µM] | SMILES | MIC (E. coli CFT073 ATCC 700928, Mueller Hinton II cation adjusted Broth with 0.002% v/v Tween-80, 35° C. for 22 hours, lowest concentration that completely prevented bacterial growth) [µM]
8 | 3.1 (≈ 2.16 µg/mL) | CCCCCC[C@H]1OC(=O)CNC(=O)[C@H]([C@@H](O)CO)NC(=O)[C@H](CN)NC(=O)[C@H](C2CCCCC2)NC(=O)[C@H](CC(C)C)N(C)C(=O)[C@@H]1C [Example 102, (6S,9S,12S,15S,18R,19R)-9-(aminomethyl)-12-cyclohexyl-19-hexyl-15-isobutyl-16,18-dimethyl-6-[(1R)-1,2-dihydroxyethyl]-1-oxa-4,7,10,13,16-pentazacyclononadecane-2,5,8,11,14,17-hexone] | 
9 | 3.1 (≈ 2.12 µg/mL) | CCCC(C)(C)CC[C@H]1OC(=O)CNC(=O)[C@H]([C@H](C)O)NC(=O)[C@H](CN)NC(=O)[C@H]([C@H](C)CC)NC(=O)[C@H](CC(C)C)N(C)C(=O)[C@@H]1C [Example 103, (6S,9S,12S,15S,18R,19R)-9-(aminomethyl)-19-(3,3-dimethylhexyl)-15-isobutyl-16,18-dimethyl-6-[(1S)-1-hydroxyethyl]-12-[(1R)-1-methylpropyl]-1-oxa-4,7,10,13,16-pentazacyclononadecane-2,5,8,11,14,17-hexone] | 
10 | 6.3 (≈ 4.29 µg/mL) | CCCCCC[C@H]1OC(=O)CNC(=O)[C@H]([C@H](C)O)NC(=O)[C@H](CN)NC(=O)[C@H]([C@H](C)CC)NC(=O)[C@H](CC2CCCC2)N(C)C(=O)[C@@H]1C [Example 104, (6S,9S,12S,15S,18R,19R)-9-(aminomethyl)-15-(cyclopentylmethyl)-19-hexyl-16,18-dimethyl-6-[(1S)-1-hydroxyethyl]-12-[(1R)-1-methylpropyl]-1-oxa-4,7,10,13,16-pentazacyclononadecane-2,5,8,11,14,17-hexone] | 
11 | 6.3 (≈ 5.05 µg/mL) | CCCCCC[C@H]1OC(=O)CNC(=O)[C@H]([C@H](C)O)NC(=O)[C@H](CN)NC(=O)[C@H](C2CCCCC2)NC(=O)[C@H](CC(C)C)N(C)C(=O)[C@@H]1CCOc1ccc(C)cc1 [Example 106, (6S,9S,12S,15S,18R,19R)-9-(aminomethyl)-12-cyclohexyl-19-hexyl-15-isobutyl-16-methyl-18-[2-(4-methylphenoxy)ethyl]-6-[(1S)-1-hydroxyethyl]-1-oxa-4,7,10,13,16-pentazacyclononadecane-2,5,8,11,14,17-hexone] | 
12 | 25 (≈ 17.7 µg/mL) | CC[C@@H](C)[C@@H]1NC(=O)[C@H](CC(C)C)N(C)C(=O)[C@H](C)[C@@H](CCCCCC(F)(F)F)OC(=O)CNC(=O)[C@H]([C@H](C)O)NC(=O)[C@H](CN)NC1=O [Example 107, (6S,9S,12S,15S,18R,19R)-9-(aminomethyl)-15-isobutyl-16,18-dimethyl-6-[(1S)-1-hydroxyethyl]-12-[(1R)-1-methylpropyl]-19-(6,6,6-trifluorohexyl)-1-oxa-4,7,10,13,16-pentazacyclononadecane-2,5,8,11,14,17-hexone] | 
13 | 35 (≈ 29.6 µg/mL) | CCCCCC[C@H]1OC(=O)CNC(=O)[C@H]([C@H](C)O)NC(=O)[C@H](CN)NC(=O)[C@H](C2CCCCC2)NC(=O)[C@H](CC(C)C)N(C)C(=O)[C@@H]1CCc1ccc(-c2ccccc2)cc1 [Example 108, (6S,9S,12S,15S,18R,19R)-9-(aminomethyl)-12-cyclohexyl-19-hexyl-15-isobutyl-16-methyl-18-[2-(4-phenylphenyl)ethyl]-6-[(1S)-1-hydroxyethyl]-1-oxa-4,7,10,13,16-pentazacyclononadecane-2,5,8,11,14,17-hexone] | 
14 | 25 (≈ 18.6 µg/mL) | CCCC[C@H]1OC(=O)CNC(=O)[C@H]([C@H](C)O)NC(=O)[C@H](CN)NC(=O)[C@H](C2CCCCC2)NC(=O)[C@H](CC(C)C)N(C)C(=O)[C@@H]1Cc1ccc(C)cc1 [Example 109, (6S,9S,12S,15S,18R,19R)-9-(aminomethyl)-19-butyl-12-cyclohexyl-15-isobutyl-16-methyl-18-(p-tolylmethyl)-6-[(1S)-1-hydroxyethyl]-1-oxa-4,7,10,13,16-pentazacyclononadecane-2,5,8,11,14,17-hexone] | 
